Where “and” joins values, the source holds several entries; their conditions need not be identical. Equal values may be shown once.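 Each compound was tested at five concentrations against cells in 96-well plates for 48 hours. Here, GI50 denotes the concentration required for 50% inhibition of growth. TGI denotes the concentration required for complete inhibition of growth.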
What was measured:
Test in all cases: NCI-60 cell line screen, 48 h
COLO 205 colon = tested on: COLO 205 colon
HOP-92 NSCLC = tested on: HOP-92 NSCLC
MDA-N = tested on: MDA-N
MOLT-4 leukemia = tested on: MOLT-4 leukemia
NCI-H522 lung = tested on: NCI-H522 lung
RXF 393 renal = tested on: RXF 393 renal
SK-MEL-28 melanoma = tested on: SK-MEL-28 melanoma
SK-MEL-5 melanoma = tested on: SK-MEL-5 melanoma
TK-10 renal = tested on: TK-10 renal
U251 CNS = tested on: U251 CNS
UACC-257 melanoma = tested on: UACC-257 melanoma
SNB-75 CNS = tested on: SNB-75 CNS
OVCAR-8 ovarian = tested on: OVCAR-8 ovarian
BT-549 breast = tested on: BT-549 breast

SMILES	TGI (COLO 205 colon) [µM]	TGI (HOP-92 NSCLC)	TGI (MDA-N) [µM]	TGI (MOLT-4 leukemia) [µM]	TGI (NCI-H522 lung)	TGI (RXF 393 renal) [µM]	TGI (SK-MEL-28 melanoma) [µM]	TGI (SK-MEL-5 melanoma) [µM]	TGI (TK-10 renal) [µM]	TGI (U251 CNS) [µM]	TGI (UACC-257 melanoma) [µM]	TGI (SNB-75 CNS) [µM]	TGI (OVCAR-8 ovarian) [µM]	TGI (BT-549 breast) [µM]	GI50 (HOP-92 NSCLC) [µM]	GI50 (MOLT-4 leukemia) [µM]	GI50 (NCI-H522 lung) [µM]	GI50 (RXF 393 renal) [µM]
C[C@@H]1C(O)CC[C@H](C)C12CC=CC2=O (stereo not given in full)	> 100	> 100 µM	> 100	> 100	> 100 µM	> 100	> 100	> 100	> 100	> 100	> 100							
CNC(=O)CN1CC(=O)N(C)C(=O)C1	> 100	> 100 µM		> 100	> 100 µM	> 100	> 100	> 100	> 100	> 100		> 100						
CCN1/C(=C/C(C)=C/c2sc3ccccc3[n+]2CC)Sc2ccccc21		0.338 µM		1.15		1.59	1.22	1.11	1.37			1.15	1.37					
CN1CCN(c2ccc3[nH]c(C4=C(O)c5nc(CO)n(C)c5C(=O)C4=O)nc3n2)CC1	> 100	> 100 µM		> 100	> 100 µM	91.4	> 100			> 100	> 100	> 100	> 100	> 100				
Cc1ccc2[nH]c3c(C)c4ccncc4c(C)c3c2c1	2.23	3.09 µM		1.95	2.28 µM	0.513	3.47	2.92	14.2	2.46	2.94	3.17	2.25					
CC(C)(C)C=C=C(C(C)(C)C)P(=O)(O)O	> 100	> 100 µM	> 100		> 100 µM	> 100	> 100	> 100	> 100	> 100	> 100	> 100	> 100					
CC(C)[Si](OC1=CCCCCC12C(=O)N(C)c1ccccc12)(C(C)C)C(C)C (stereo not given)	35.8	30.8 µM	79.7	> 100	33.7 µM	21.8	60.4	33.8	80.9	36.3	45.8	40.4	44.6					
CC(=O)Oc1c(OC(C)=O)c(-c2ccc(O)c(O)c2)c(O)c(O)c1-c1ccc(O)cc1	> 100	> 100 µM and 96.6 µM		> 100	45.2 µM and 33 µM	> 100	> 100	> 100		> 100	> 100	> 100	> 100		60.8	53.6	20.1	> 100
CCCc1c2c3ccccc3nc-2nc2ccccn12	> 100	> 100 µM	> 100	> 100	> 100 µM		> 100	> 100	> 100	> 100	> 100	> 100	> 100	> 100				
C=C1C(=O)OC2/C=C(\C)C(O)/C=C\C(C)(O)CC(OC(=O)/C(C)=C/C)C12 (stereo not given)	28.9	77.5 µM		53.8	26.2 µM	42.6	35.4	> 100	> 100	> 100	> 77.1	> 100	50.5					
COc1ccc(NC2=NCCO2)c2ccccc12	> 10		> 10	> 10	> 10 µM	> 10	> 10	> 10	> 10			> 10	> 10					
O=C(NCc1ccccc1)c1cnc(Cl)cn1	> 100	55 µM		> 100	4.35 µM	> 100	> 100	> 100	> 100	> 100	> 100	> 100	> 100					
O=C(O)c1ccccc1/C=N\NC1=NCCN1	> 100	> 100 µM	> 100	> 100	> 100 µM			> 100	> 100	> 100	> 100	> 100	> 100	> 100				
CC(C)[Si]1(C(C)C)OCC2OC(n3ccc(=O)[nH]c3=O)C(O)(CO)C2O[Si](C(C)C)(C(C)C)O1 (stereo not given)	31.7	22.6 µM		69.1		30.4	36.7	28.4	31.3	30.1	28.7		29.5	30.7				
CC(C)(C)OC(=O)N1CCC23CCCC2C(=O)CC=C13 (stereo not given)	> 100	> 100 µM		> 100	> 100 µM	> 100	> 100	> 100	> 100	> 100	71.9	> 100	> 100	> 100				
COc1cc2c(c(OC)c1OC)C(=O)CC2N (stereo not given)	> 100	> 100 µM		> 100	> 100 µM		> 100	> 100	> 100	> 100	> 100	> 100	> 100	> 100				
O=C(/C=C/c1ccc(Cl)c(Cl)c1)Oc1ccc(/C=C2\CCCCC2=O)cc1	> 100	> 100 µM	> 100	72.1	> 100 µM		> 100	> 100	> 100	> 100	> 100	> 100	> 100					
Cc1ccc(S(=O)(=O)N/N=C2\C=C[C@]3(CC2)C(=O)N(C)c2ccccc23)cc1	> 100	> 100 µM	> 100	> 100		> 100	> 100	> 100		> 100	> 100	> 100	> 100					

From PubChem BioAssay (NCI)
